Read-outs that look alike come from different tables or passages of the source.
Columns and labels:
Format in all cases: in vivo
Alternaria solani = assay: Tomato Early Blight (ALTESO) disease control; conditions: 100 ppm, 1 Day Protectant
Protocol: Technical grades of materials were dissolved in acetone, which were then mixed with nine volumes of water containing 110 ppm Triton X-100. The fungicide solutions were applied onto wheat seedlings using an automated booth sprayer to run-off. All sprayed plants were allowed to air dry prior to further handling. All fungicides were evaluated using the aforementioned method for their activity vs. all target diseases, unless stated otherwise. Wheat leaf blotch and brown rust activity were also evaluated using track spray applications, in which case the fungicides were formulated as EC formulations, containing 0.1% Trycol 5941 in the spray solutions. Wheat plants (variety Yuma) were grown from seed in a greenhouse in 50% mineral soil/50% soil-less Metro mix until the first leaf was fully emerged, with 7-10 seedlings per pot. These plants were inoculated with an aqueous spore suspension of Septoria tritici either prior to or after fungicide treatments. After inoculation the plants were kept in 100% relative humidity (one day in a dark dew chamber followed by two to three days in a lighted dew chamber at 20° C.) to permit spores to germinate and infect the leaf. The plants were then transferred to a greenhouse set at 20° C. for disease to develop. When disease symptoms were fully expressed on the 1st leaves of untreated plants, infection levels were assessed on a scale of 0 to 100 percent disease severity. Percent disease control was calculated using the ratio of disease severity on treated plants relative to untreated plants. Example M: Evaluation of Fungicidal Activity: Tomato Early Blight (Alternaria solani; Bayer Code […]) Tomato plants (variety Outdoor Girl) were propagated in soil-less Metro mix, with each pot having one plant, and used when 12 to 14 days old. Test plants were inoculated with an aqueous spore suspension of Alternaria solani 24 hr after fungicide treatments. […]

Puccinia triticina = assay: Wheat Brown Rust (PUCCRT) disease control on wheat seedlings; conditions: for pest or weed control at 121.5 g/ha: Low Volume (121.5 g/H); for pest or weed control at 100 µg/mL: High Volume (100 ppm)
How it was run: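 Yuma wheat seedlings at the first-leaf stage sprayed to run-off (acetone solution in nine volumes of water, 110 ppm Triton X-100) or track-sprayed as EC with 0.1% Trycol 5941. Inoculation with P. triticina before or after treatment, then overnight dark dew at 22° C., 100% RH, then a 24° C. greenhouse. Percent control from severity vs untreated.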

Rhyncosporium secalis = assay: Barley Scald (RHYNSE) disease control; conditions: 100 ppm, 1 Day Protectant
Protocol: Technical grades of materials were dissolved in acetone, which were then mixed with nine volumes of water containing 110 ppm Triton X-100. The fungicide solutions were applied onto wheat seedlings using an automated booth sprayer to run-off. All sprayed plants were allowed to air dry prior to further handling. All fungicides were evaluated using the aforementioned method for their activity vs. all target diseases, unless stated otherwise. Wheat leaf blotch and brown rust activity were also evaluated using track spray applications, in which case the fungicides were formulated as EC formulations, containing 0.1% Trycol 5941 in the spray solutions. Wheat plants (variety Yuma) were grown from seed in a greenhouse in 50% mineral soil/50% soil-less Metro mix until the first leaf was fully emerged, with 7-10 seedlings per pot. These plants were inoculated with an aqueous spore suspension of Septoria tritici either prior to or after fungicide treatments. After inoculation the plants were kept in 100% relative humidity (one day in a dark dew chamber followed by two to three days in a lighted dew chamber at 20° C.) to permit spores to germinate and infect the leaf. The plants were then transferred to a greenhouse set at 20° C. for disease to develop. When disease symptoms were fully expressed on the 1st leaves of untreated plants, infection levels were assessed on a scale of 0 to 100 percent disease severity. Percent disease control was calculated using the ratio of disease severity on treated plants relative to untreated plants. Example K: Evaluation of Fungicidal Activity: Barley Scald (Rhyncosporium secalis; Bayer Code […]) Barley seedlings (variety Harrington) were propagated in soil-less Metro mix, with each pot having 8 to 12 plants, and used in the test when first leaf was fully emerged. Test plants were inoculated by an aqueous spore suspension of Rhyncosporium secalis 24 hr after fungicide treatments. After inoculation the plants were kept in a dew room at 20° C. with 100% relative humidity for 48 hr. […]

Uncinula necator = assay: Grape Powdery Mildew (UNCINE) disease control; conditions: 100 ppm, 1 Day Protectant
Venturia inaequalis = assay: Apple Scab (VENTIN) disease control; conditions: 100 ppm, 1 Day Protectant
Phakopsora pachyrhizi = assay: Asian Soybean Rust (PHAKPA) disease control; conditions: 25 ppm
Protocol: Example H: Evaluation of Fungicidal Activity: Asian Soybean Rust (Phakopsora pachyrhizi; Bayer Code […]) Technical grades of materials were dissolved in acetone, which were then mixed with nine volumes of water containing 0.011% Tween 20. The fungicide solutions were applied onto soybean seedlings using an automated booth sprayer to run-off. All sprayed plants were allowed to air dry prior to further handling. Soybean plants (variety Williams 82) were grown in soil-less Metro mix, with one plant per pot. Two weeks old seedlings were used for testing. Plants were inoculated either 3 days prior to or 1 day after fungicide treatments. Plants were incubated for 24 h in a dark dew room at 22° C. and 100% relative humidity then transferred to a growth room at 23° C. for disease to develop. Disease severity was assessed on the sprayed leaves.

[1] = 24 h, 1 Day Protectant, read-out: PUCCRT disease control, 1 DP
[2] = 72 h, 3 Day Curative, read-out: PUCCRT disease control, 3 DC

Row | SMILES | ALTESO disease control, 1DP (Alternaria solani) | pest or weed control at 121.5 g/ha (Puccinia triticina; [1]) [%] | pest or weed control at 121.5 g/ha (Puccinia triticina; [2]) [%] | RHYNSE disease control, 1DP (Rhyncosporium secalis) | UNCINE disease control, 1DP (Uncinula necator) | pest or weed control at 100 µg/mL (Puccinia triticina; [1]) [%] | pest or weed control at 100 µg/mL (Puccinia triticina; [2]) [%] | VENTIN disease control, 1DP (Venturia inaequalis) | PHAKPA disease control, 1DP (Phakopsora pachyrhizi; 1 Day Protectant) | PHAKPA disease control, 3DC (Phakopsora pachyrhizi; 3 Day Curative)
1 | CCCC[C@H]1OCC[C@H](NC(=O)c2nccc(OC)c2OC(C)=O)C(=O)O[C@@H](C)[C@@H]1Cc1ccccc1 [Compound 2] | B (≦70) | > 70 | > 70 | A (>70) |  |  |  |  |  | 
2 | COc1ccnc(C(=O)N[C@H]2CCO[C@H](Cc3ccccc3)[C@@H](Cc3ccccc3)[C@H](C)OC2=O)c1OC(C)=O [Compound 3] | B (≦70) | > 70 | > 70 | B (≦70) |  |  |  |  |  | 
3 | CCC[C@H]1OCC[C@H](NC(=O)c2nccc(OC)c2OCOC(C)=O)C(=O)O[C@@H](C)[C@@H]1Cc1ccccc1 [Compound 17] | B (≦70) | > 70 | > 70 | B (≦70) | A (>70) | > 70 | > 70 | B (≦70) | A (>70) | A (>70)

From patent publication US9686984B2, “Macrocyclic picolinamides as fungicides” (DOW AGROSCIENCES LLC, priority 2014, dated 2017)
